pIC50: −log10 of the molar value.
Test system: MALME-3M multicell spheroids, viability
Assay: Anticancer human tumor MALME-3M cell line growth inhibition [TAK];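 further: spheroids exposed to drugs for seven days before readout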;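 on viability, T/C: 100% = DMSO vehicle control viability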
Conditions: for pIC50: curve of first compound; for viability, T/C: stronger effect = lower value
Text: Combinatorial screen of targeted agents with TAK-243 and ipatasertib in multi-cell type tumor spheroids
A high-throughput screen of multi-cell type tumor spheroids was designed to identify active combinations of targeted small molecules and TAK-243 or ipatasertib. Complex spheroids include a stromal component modeled by human endothelial cells (HUVEC) and fibroblasts modeled by human mesenchymal stem cells (MSCs). The concentration ranges selected for each drug and investigational agent were based upon clinically achievable concentrations if the clinical Cmax of the agent was known.
Compounds. The drugs and investigational agents: TAK-243 (785004), ipatasertib (767898), everolimus (733504), selumetinib (741078), bortezomib (756655), trametinib (758246), ixazomib (758254), vemurafenib (761431), dabrafenib (764134), sapanisertib (764658), alpelisib (765974), and copanlisib (816437), were obtained from the National Cancer Institute (NCI) Developmental Therapeutics Program Chemical Repository. The FDA-approved anticancer drug set is available from the NCI Developmental Therapeutics Program. […] The stock solutions were prepared in dimethyl sulfoxide (DMSO, Sigma-Aldrich, St. Louis, MO, cat. D2650) at 800-fold the tested concentration and stored at -70 degrees C prior to their use. All drugs and investigational agents were tested over a range starting from a high concentration at or near the clinical Cmax and decreasing in half-log increments. If the clinical Cmax for an agent had not been determined, the highest concentration tested was 10 microM.
NCI60 Cell Culture. NCI60 cell lines were obtained from the NCI Developmental Therapeutics Program Tumor Repository. For each lot of cells, the Repository performed Applied Biosystems AmpFLSTR Identifiler testing with PCR amplification to confirm consistency with the published Identifier STR profile for each cell line. Cells were kept in continuous culture for no more than 20 passages. The optimal seeding densities for each of the cell lines at each time point assessed were determined prior to performing the concentration response studies. Briefly, the NCI60 human tumor lines were grown as monolayers in RPMI 1640 medium supplemented with 10% FBS and 2 mmol/L L-glutamine.
An additional 2 lines were from the NCI60 cell line panel including melanomas, MALME-3M and SK-MEL-2. Pooled donor human umbilical vein endothelial cells (HUVEC, Lonza, cat. CC-2519) and human mesenchymal stem cells (hMSC, Lonza, cat. PT-2501) were purchased from Lonza (Walkersville, MD).
PDMR cell lines were grown in complete medium (DC medium): Dulbecco's modified Eagle's medium (DMEM)/F12 supplemented with 5% fetal bovine serum (FBS), 2 mM L-glutamine, 100 U/mL penicillin and 100 µg/ml streptomycin, 0.4 µg/ml hydrocortisone, 10 ng/ml epidermal growth factor (EGF) recombinant human protein, 24 µg/mL adenine, and 0.1 mg/mL primocin. During culture from frozen stock vials, PDMR cells were cultured in the same medium containing 10 µM Y-27632 (see Table 3). The PDCs were cultured in complete DMEM/F12 media without 10 microM Y-27632 dihydrochloride for at least two passages prior to the screen. The pooled donor HUVEC and hMSC were cultured in endothelial cell growth medium 2 (PromoCell, Heidelberg, Germany, cat. C-22011) and mesenchymal stem cell growth medium 2 (PromoCell, cat. C-28009), respectively. For all experiments, HUVEC and hMSC were used at passages </=5.
For the pre-screen, cell seeding densities were determined from a titration spanning the range from 5,000 to 313 cells per well. The mct-spheroids including 60% malignant cells, 25% HUVEC and 15% MSC dispensed as a mixture into U-bottom Ultra-Low Attachment 384-well plates (Corning, NY)
High-throughput Drug Combination Screening.
Prior to their inoculation into 384-well plates, malignant cells, HUVEC, and hMSC were removed from T flasks using TrypLE express (Thermo Fisher Scientific, cat. 12605036) and harvested by centrifugation for 5 min at 233 x g. […]

[1] = second compound 0.3 µM, first compound 0.00949 µM
[2] = second compound 0.3 µM, first compound 0.03 µM
[3] = second compound 0.949 µM, first compound 0.00949 µM
[4] = second compound 0.949 µM, first compound 0.03 µM
[5] = second compound 3 µM, first compound 0.00949 µM
[6] = second compound 3 µM, first compound 0.03 µM
[7] = second compound 9.49 µM, first compound 0.00949 µM
[8] = second compound 9.49 µM, first compound 0.03 µM
[9] = second compound 30 µM, first compound 0.00949 µM
[10] = second compound 30 µM, first compound 0.03 µM

For CC(=O)Nc1cccc(-n2c(=O)n(C3CC3)c(=O)c3c(Nc4ccc(I)cc4F)n(C)c(=O)c(C)c32)c1 + CC(C)NCC(C(=O)N1CCN(c2ncnc3c2C(C)CC3O)CC1)c1ccc(Cl)cc1, the pIC50 (second compound 0.3 µM) was 9.37, the pIC50 (second compound 0.949 µM) was 9.33 and the pIC50 (second compound 3 µM) was 9.60. The pIC50 (second compound 9.49 µM) was 9.74, the pIC50 (second compound 30 µM) was > 10.02 and the viability, T/C (second compound 0.3 µM, first compound 94.9 pM) was 107%. For the same molecule, the viability, T/C (second compound 0.3 µM, first compound 0.0003 µM) was 62.2%, the viability, T/C (second compound 0.3 µM, first compound 0.000949 µM) was 20.4% and the viability, T/C (second compound 0.3 µM, first compound 0.003 µM) was 14.8%. It also gave a viability, T/C [1] of 10.7%, a viability, T/C [2] of 4.75% and a viability, T/C (second compound 0.949 µM, first compound 94.9 pM) of 99.9%. It also gave a viability, T/C (second compound 0.949 µM, first compound 0.0003 µM) of 68.3%, a viability, T/C (second compound 0.949 µM, first compound 0.000949 µM) of 20.4% and a viability, T/C (second compound 0.949 µM, first compound 0.003 µM) of 13.9%. For the same molecule, the viability, T/C [3] was 9.51%, the viability, T/C [4] was 5.18% and the viability, T/C (second compound 3 µM, first compound 94.9 pM) was 84.4%. For the same molecule, the viability, T/C (second compound 3 µM, first compound 0.0003 µM) was 44.2%, the viability, T/C (second compound 3 µM, first compound 0.000949 µM) was 19.2% and the viability, T/C (second compound 3 µM, first compound 0.003 µM) was 11.1%. It also gave a viability, T/C [5] of 7.71%, a viability, T/C [6] of 2.69% and a viability, T/C (second compound 9.49 µM, first compound 94.9 pM) of 70.4%. For the same molecule, the viability, T/C (second compound 9.49 µM, first compound 0.0003 µM) was 33.8%, the viability, T/C (second compound 9.49 µM, first compound 0.000949 µM) was 15.5% and the viability, T/C (second compound 9.49 µM, first compound 0.003 µM) was 10.1%. The viability, T/C [7] was 4.94%, the viability, T/C [8] was 1.67% and the viability, T/C (second compound 30 µM, first compound 94.9 pM) was 44.2%. It also gave a viability, T/C (second compound 30 µM, first compound 0.0003 µM) of 25%, a viability, T/C (second compound 30 µM, first compound 0.000949 µM) of 10.5% and a viability, T/C (second compound 30 µM, first compound 0.003 µM) of 4.22%. For the same molecule, the viability, T/C [9] was 2.32% and the viability, T/C [10] was 0.3%.

In the case of CC(C)CC(NC(=O)C(Cc1ccccc1)NC(=O)c1cnccn1)B(O)O (stereo not given) + CC(C)NCC(C(=O)N1CCN(c2ncnc3c2C(C)CC3O)CC1)c1ccc(Cl)cc1, the pIC50 (second compound 0.3 µM) was 8.60, the pIC50 (second compound 0.949 µM) was 8.65 and the pIC50 (second compound 3 µM) was 8.64. It also gave a pIC50 (second compound 9.49 µM) of 8.73, a pIC50 (second compound 30 µM) of 8.98 and a viability, T/C (second compound 0.3 µM, first compound 31.6 pM) of 124%. For the same molecule, the viability, T/C (second compound 0.3 µM, first compound 0.0001 µM) was 103%, the viability, T/C (second compound 0.3 µM, first compound 0.000316 µM) was 108% and the viability, T/C (second compound 0.3 µM, first compound 0.001 µM) was 122%. For the same molecule, the viability, T/C (second compound 0.3 µM, first compound 0.00316 µM) was 33.9%, the viability, T/C (second compound 0.3 µM, first compound 0.01 µM) was 0.71% and the viability, T/C (second compound 0.949 µM, first compound 31.6 pM) was 113%. It also gave a viability, T/C (second compound 0.949 µM, first compound 0.0001 µM) of 110%, a viability, T/C (second compound 0.949 µM, first compound 0.000316 µM) of 107% and a viability, T/C (second compound 0.949 µM, first compound 0.001 µM) of 111%. It also gave a viability, T/C (second compound 0.949 µM, first compound 0.00316 µM) of 25.4%, a viability, T/C (second compound 0.949 µM, first compound 0.01 µM) of 0.85% and a viability, T/C (second compound 3 µM, first compound 31.6 pM) of 86.4%. For the same molecule, the viability, T/C (second compound 3 µM, first compound 0.0001 µM) was 95.8%, the viability, T/C (second compound 3 µM, first compound 0.000316 µM) was 91.2% and the viability, T/C (second compound 3 µM, first compound 0.001 µM) was 91.5%. The viability, T/C (second compound 3 µM, first compound 0.00316 µM) was 33.9%, the viability, T/C (second compound 3 µM, first compound 0.01 µM) was 0.73% and the viability, T/C (second compound 9.49 µM, first compound 31.6 pM) was 81%. The viability, T/C (second compound 9.49 µM, first compound 0.0001 µM) was 87.5%, the viability, T/C (second compound 9.49 µM, first compound 0.000316 µM) was 75.5% and the viability, T/C (second compound 9.49 µM, first compound 0.001 µM) was 83.4%. It also gave a viability, T/C (second compound 9.49 µM, first compound 0.00316 µM) of 22.7%, a viability, T/C (second compound 9.49 µM, first compound 0.01 µM) of 0.55% and a viability, T/C (second compound 30 µM, first compound 31.6 pM) of 54.9%. For the same molecule, the viability, T/C (second compound 30 µM, first compound 0.0001 µM) was 57.2%, the viability, T/C (second compound 30 µM, first compound 0.000316 µM) was 52% and the viability, T/C (second compound 30 µM, first compound 0.001 µM) was 51.7%. It also gave a viability, T/C (second compound 30 µM, first compound 0.00316 µM) of 13.2% and a viability, T/C (second compound 30 µM, first compound 0.01 µM) of 0.96%.

Cn1cnc2c(F)c(Nc3ccc(Br)cc3Cl)c(C(=O)NOCCO)cc21 + CC(C)NCC(C(=O)N1CCN(c2ncnc3c2C(C)CC3O)CC1)c1ccc(Cl)cc1 was tested, and the pIC50 (second compound 0.3 µM) was 7.39, the pIC50 (second compound 0.949 µM) was 7.44 and the pIC50 (second compound 3 µM) was 7.44. The pIC50 (second compound 9.49 µM) was 7.76, the pIC50 (second compound 30 µM) was > 8.02 and the viability, T/C [1] was 92.5%. It also gave a viability, T/C [2] of 60.7%, a viability, T/C (second compound 0.3 µM, first compound 0.0949 µM) of 21% and a viability, T/C (second compound 0.3 µM, first compound 0.3 µM) of 19%. It also gave a viability, T/C (second compound 0.3 µM, first compound 0.949 µM) of 13.1%, a viability, T/C (second compound 0.3 µM, first compound 3 µM) of 5.91% and a viability, T/C [3] of 86.2%. For the same molecule, the viability, T/C [4] was 55.6%, the viability, T/C (second compound 0.949 µM, first compound 0.0949 µM) was 23.5% and the viability, T/C (second compound 0.949 µM, first compound 0.3 µM) was 16.7%. The viability, T/C (second compound 0.949 µM, first compound 0.949 µM) was 12%, the viability, T/C (second compound 0.949 µM, first compound 3 µM) was 4.79% and the viability, T/C [5] was 78.3%. The viability, T/C [6] was 56.6%, the viability, T/C (second compound 3 µM, first compound 0.0949 µM) was 19.6% and the viability, T/C (second compound 3 µM, first compound 0.3 µM) was 16.3%. The viability, T/C (second compound 3 µM, first compound 0.949 µM) was 9.28%, the viability, T/C (second compound 3 µM, first compound 3 µM) was 3.64% and the viability, T/C [7] was 66.8%. For the same molecule, the viability, T/C [8] was 33.1%, the viability, T/C (second compound 9.49 µM, first compound 0.0949 µM) was 19.6% and the viability, T/C (second compound 9.49 µM, first compound 0.3 µM) was 12.1%. The viability, T/C (second compound 9.49 µM, first compound 0.949 µM) was 7.13%, the viability, T/C (second compound 9.49 µM, first compound 3 µM) was 2.1% and the viability, T/C [9] was 47.3%. For the same molecule, the viability, T/C [10] was 31.6%, the viability, T/C (second compound 30 µM, first compound 0.0949 µM) was 13.1% and the viability, T/C (second compound 30 µM, first compound 0.3 µM) was 7.49%. It also gave a viability, T/C (second compound 30 µM, first compound 0.949 µM) of 3.66% and a viability, T/C (second compound 30 µM, first compound 3 µM) of 0.52%.

Reference: PubChem BioAssay AID2060345 (Molecular Pharmacology Branch, DTP, NCI, 2025)
